Like-named read-outs stand apart in the source and are kept apart here.
Legend:
ACH = assay: Broncholysis (guinea pig), ACH (Konzett, Rossler); type: in vivo; conditions: Cavia porcellus, iv
Source text: (§1) The following Table summarizes the results of pharmacological studies conducted with the compound according to the invention, 1,1-diphenyl-4-pyrrolidinyl-2-butyne-1-ol-N-methyl ammonium bromide, and with butynoline phosphate as the comparison substance.
(§2) ACH 30 ACH 60 Rossler, R.,
(§3) Hi 500 Hi 1000 Arch. exp. Pharmacol.

Hi = assay: Broncholysis (guinea pig), Hi (Konzett, Rossler); type: in vivo; conditions: Cavia porcellus, iv
Source text: as §1, §2, §3

stress ulcer = assay: Anti-ulcerogenic effect, stress ulcer (Takagi, Okabe); type: in vivo; conditions: po, i.g.
Source text: as §1
effect i.g. i.g. Jap. J. Pharmac. 18,

[1] = Inhibition of the carbachol-induced secretion of saliva (rat), cholinolytic side effects (mod. Brown, Quinton); conditions: in vivo, po, i.g.
Source text: (§4) As already mentioned, the compounds according to the invention show better pharmacological properties than the known butynoline phosphate, particularly in regard to the broncholytic and anti-ulcerogenic effect obtainable therewith. Tests relating to inhibition of the carbachol-induced secretion of saliva and mydriasis have shown that the compounds according to the invention have fewer side effects than the known butynoline phosphate.
as §1
i.g. i.g. Brown, D. M., Quinton,
24 9.8 R. M., Brit. J. Pharma-

[2] = Mydriasis, cholinolytic side effects (Pulewka); conditions: in vivo, po, i.g.
Source text: as §4, §1
i.g. i.g. exp. Pharmacol.

[3] = target: T1, Mee-ileum (Cavia porcellus); assay: Spasmolytic effect in vitro (Mee-ileum) (Van Rossum); conditions: ACH, read-out: Spasmolytic effect in vitro pA2 (ACH) (converted)
T1 construct: in vitro (Mee-ileum); from tissue; host or cells: isolated ileum ('Mee-ileum', read as guinea pig ileum)
Source text: as §1
8.0 8.2 Arch. Int. Pharmaco-

[4] = system: carbachol-induced gastric secretion; assay: Inhibition of the carbachol-induced gastric secretion (Heidenhain cat) (Engler, Fritschi); type: in vivo; conditions: Felis catus, po, i.g.
Source text: as §1
0.3 0.3 Schmiedeberg's Arch.
(Heidenhain cat) Pharmacol. 297,

[5] = in words; cited from earlier work

T1 sequence (H0W1Z3 1-590): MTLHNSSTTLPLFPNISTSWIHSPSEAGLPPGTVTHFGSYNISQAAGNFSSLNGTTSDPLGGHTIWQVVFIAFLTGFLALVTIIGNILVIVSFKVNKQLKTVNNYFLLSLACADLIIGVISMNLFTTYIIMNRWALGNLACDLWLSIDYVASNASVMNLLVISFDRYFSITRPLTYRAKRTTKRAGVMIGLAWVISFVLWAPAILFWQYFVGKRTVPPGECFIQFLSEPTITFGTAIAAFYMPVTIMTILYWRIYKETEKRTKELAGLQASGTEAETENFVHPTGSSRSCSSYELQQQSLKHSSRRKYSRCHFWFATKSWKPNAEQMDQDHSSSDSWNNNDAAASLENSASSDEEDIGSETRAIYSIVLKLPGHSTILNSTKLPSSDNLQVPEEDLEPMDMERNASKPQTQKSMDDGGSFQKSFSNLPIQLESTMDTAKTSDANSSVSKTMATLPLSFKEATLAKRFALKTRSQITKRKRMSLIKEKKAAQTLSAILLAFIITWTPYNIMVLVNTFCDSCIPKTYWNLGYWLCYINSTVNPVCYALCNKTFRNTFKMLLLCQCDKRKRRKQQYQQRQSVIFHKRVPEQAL

SMILES: OC(C#CCN1CCCC1)(c1ccccc1)c1ccccc1 [Butynoline phosphate, phosphate of 1,1-diphenyl-4-pyrrolidino-2-butyne-1-ol]
- ED50 (ACH): 0.06 mg/kg
- ED50 (Hi): 1 mg/kg
- ED50 (stress ulcer): 150 mg/kg
- ED50 [1]: 9.8 mg/kg
- ED50 [2]: 16 mg/kg
- Kb [3]: 6.31 nM
- ED50 ([4]; butynoline phosphate column, read-out: Inhibition of the carbachol-induced gastric secretion ED50 (ACH)): 0.3 mg/kg
- pharmacological activity (known) [5]: anti-cholinergic spasmolytic and anti-ulcerogenic activity

SMILES: C[N+]1(CC#CC(O)(c2ccccc2)c2ccccc2)CCCC1 [1,1-diphenyl-4-pyrrolidinyl-2-butyne-1-ol-N-methyl ammonium bromide]
- ED50 (ACH): 0.03 mg/kg
- ED50 (Hi): 0.5 mg/kg
- ED50 (stress ulcer): 25 mg/kg
- ED50 [1]: 24 mg/kg
- ED50 [2]: 128 mg/kg
- Kb [3]: 10 nM
- ED50 ([4]; read-out: Inhibition of the carbachol-induced gastric secretion ED50): 0.3 mg/kg

Reference: patent US4420488A, “Quaternary 1,1-diphenyl-4-pyrrolidinium-2-butyne salts, a process for their production and medicaments containing these compounds” (Ludwig Heumann & Co. GmbH, priority 1980, dated 1983)
